Measurements reported in US12410220B2, “Modulation of mammalian cell lineage by synthetic immodulins” (priority 2021, dated 2025).
Marks after values point to notes of the source that are not given here. Peptide text beside a SMILES is read from it.

How the values were obtained:
[1] = target: T1, RXR-gamma (Homo sapiens, UniProt P48443); assay: Experiment 4B binding to full length RXR-gamma; settings: 400 ng/well protein; 800 ng/well SA488-labelled peptide, 2 hours
T1 construct: 400 ng/well full length RXR-alpha, RXR-beta, RXR-gamma or PPAR-gamma; purchased Abcam, Cambridge, MA
T1 sequence (P48443 1-463): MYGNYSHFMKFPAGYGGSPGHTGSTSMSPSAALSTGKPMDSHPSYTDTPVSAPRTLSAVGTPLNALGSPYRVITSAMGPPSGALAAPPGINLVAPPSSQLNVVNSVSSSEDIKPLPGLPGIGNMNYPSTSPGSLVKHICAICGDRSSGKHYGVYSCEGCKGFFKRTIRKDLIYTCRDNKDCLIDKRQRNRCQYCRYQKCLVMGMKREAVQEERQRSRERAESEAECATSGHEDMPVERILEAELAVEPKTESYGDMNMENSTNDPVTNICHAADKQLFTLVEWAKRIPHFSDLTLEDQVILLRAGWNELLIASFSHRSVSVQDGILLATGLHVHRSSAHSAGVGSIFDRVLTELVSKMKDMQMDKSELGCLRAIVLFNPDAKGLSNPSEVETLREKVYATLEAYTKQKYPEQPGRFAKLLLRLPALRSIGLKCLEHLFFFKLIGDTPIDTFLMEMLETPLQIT
Procedure: (§1) Experiment 4B. Binding of immodulin peptides to RXR isoforms and domains. 100 ng/well recombinant human RXRa-DBD or RXRa-LBD, or 400 ng/well full length RXR-alpha, RXR-beta, RXR-gamma or PPAR-gamma (Abcam, Cambridge, MA) was adsorbed to wells of a 96-well plate for 60 minutes at room temperature, then blocked with 200 uL 1% BSA in PBS buffer overnight. The plate was washed with PBS and 800 ng/well Streptavidin-Alexa 488 conjugate (SA488)-labelled peptide was added. The plate was incubated for 2 hours at room temperature, washed and counted in a fluorometer (excitation/emission 485/525 nm). Significant binding above background is also shown (**p<0.05). […] When tested against domains of RXR-alpha, these peptides bind the DNA-binding domain (DBD) better than the ligand-binding domain (LBD).

[2] = system: HFF-1 human fibroblast cell line; assay: Collagen-1 ELISA in HFF-1 dermal fibroblasts; assay type: cell-based; settings: peptide 2 uM, 72 hour incubation
Procedure: Immodulin peptides have potential untility in the field of cosmetics. HFF-1 human fibroblast cell line was obtained from the American Type Culture Collection (ATCC). Cells were grown in a T-75 flask in DMEM Medium containing 10% fetal bovine serum and penicillin-streptomycin at 37° C. in a humidified, 5% CO2 incubator. Cells (100 µl, 2,000 cells/well) were plated in a 96-well plate and incubated overnight at 37° C. in a humidified, 5% CO2 incubator. Next day, 10 µl/well of compounds were added (quadruplicate wells). After 72 hour incubation with the compound, supernatants were collected for Collagen-1 ELISA assay and cell viability was measured in a luminometer after the addition of 100 IL/well CellTiterGlo reagent (Promega Inc, Madison, WI) as recommended by the manufacturer. Collagen stimulating activity of immodulin peptides in HFF-1 dermal fibroblasts: Peptides were added to cells at 2 uM. COL1 immunoreactivity was measured in the supernatants of cultured cells by ELISA using a rabbit monoclonal anti-COL1 primary antibody (Abcam, Cambridge, MA). Control (buffer) value of immunoreactivity was set to 100.

[3] = target: T2, RXR-beta (Homo sapiens, UniProt P28702); assay: Experiment 4B binding to full length RXR-beta; settings: 400 ng/well protein; 800 ng/well SA488-labelled peptide, 2 hours
T2 construct: 400 ng/well full length RXR-alpha, RXR-beta, RXR-gamma or PPAR-gamma; purchased Abcam, Cambridge, MA
T2 sequence (P28702 1-533): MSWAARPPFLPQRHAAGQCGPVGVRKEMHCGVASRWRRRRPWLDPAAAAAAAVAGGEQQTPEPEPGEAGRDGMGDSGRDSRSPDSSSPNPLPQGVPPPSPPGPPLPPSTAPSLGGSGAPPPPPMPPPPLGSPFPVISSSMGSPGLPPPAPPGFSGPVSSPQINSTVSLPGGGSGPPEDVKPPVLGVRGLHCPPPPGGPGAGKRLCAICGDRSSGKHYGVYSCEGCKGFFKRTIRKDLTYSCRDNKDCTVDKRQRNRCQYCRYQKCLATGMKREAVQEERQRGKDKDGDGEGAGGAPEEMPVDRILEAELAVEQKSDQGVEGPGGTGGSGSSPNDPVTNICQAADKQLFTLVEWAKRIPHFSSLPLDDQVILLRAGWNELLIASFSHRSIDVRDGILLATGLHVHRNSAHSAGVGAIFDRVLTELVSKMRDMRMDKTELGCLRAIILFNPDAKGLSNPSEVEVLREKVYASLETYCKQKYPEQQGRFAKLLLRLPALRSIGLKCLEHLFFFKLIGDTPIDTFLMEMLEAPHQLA
Procedure: as §1

[4] = Ferric iron-binding assay of biotinylated immodulin peptides; settings: N-terminally biotinylated peptide, 400 ng per well, 60 min room temperature; immX3AVD = 100
Outline: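 N-terminally biotinylated peptides (400 ng/well) were tested for ferric iron binding in two formats: streptavidin-A488 complexes on Fe3+-charged NTA plates, or streptavidin-captured peptide probed with FITC-NTA·Fe3+. Each step was 60 min at room temperature with fluorescence read at 525 nm. Values are normalized to immX3AVD control (100) and averaged across both protocols.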

[5] = Experiment 4D binding to FITC-labelled heparin; settings: biotinylated peptide 1 ug/well; 1 ug FITC-labelled heparin, 90 minutes
Outline: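 Biotinylated peptides (1 ug/well) bound to streptavidin plates for 60 min at room temperature, then 1 ug FITC-labelled heparin or hyaluronic acid in PBS added for 90 min at room temperature, in quadruplicate. After washes, fluorescence read at 488/525 nm and counts normalized to immX3 peptide binding = 100.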

Compound | Binding to RXR-gamma relative to imm3 binding (=100) [1] | COL1 immunoreactivity in supernatants, control (buffer) set to 100 [2] | Binding to RXR-beta relative to imm3 binding (=100) [3] | Ferric iron binding, fluorescence standardized to immX3AVD control peptide (100), Avg ± SD [4] | Heparin binding, counts normalized for immX3 peptide binding=100 [5]
N=C(N)NCCC[C@H](NC(=O)[C@H](CCCNC(=N)N)NC(=O)[C@H](CCC(N)=O)NC(=O)CNC(=O)[C@H](CCC(N)=O)NC(=O)[C@H](CO)NC(=O)[C@H](CO)NC(=O)[C@H](CCCNC(=N)N)NC(=O)[C@H](CS)NC(=O)[C@H](CCC(N)=O)NC(=O)[C@H](CCCNC(=N)N)NC(=O)[C@H](CCCCN)NC(=O)[C@H](CCCNC(=N)N)NC(=O)[C@H](Cc1ccc(O)cc1)NC(=O)[C@H](Cc1ccccc1)NC(=O)CNC(=O)[C@H](CCCNC(=N)N)NC(=O)[C@@H](N)Cc1c[nH]cn1)C(=O)NCC(=O)N1CCC[C@H]1C(=O)N[C@@H](CS)C(=O)N[C@@H](Cc1c[nH]c2ccccc12)C(=O)O [imm6] (H-HRGFYRKRQCRSSQGQRRGPCW-OH; N-terminus and C-terminus assumed) | 42.0 ± 11.6** | 112 | 4.7 ± 0.4 | 65.9 ± 4.9** | 97.2 ± 17.3
CC[C@H](C)[C@H](NC(=O)CNC(=O)[C@H](CCCNC(=N)N)NC(=O)[C@H](CCCCN)NC(=O)[C@H](CCCNC(=N)N)NC(=O)CNC(=O)[C@H](CCCNC(=N)N)NC(=O)[C@H](CO)NC(=O)[C@@H]1CCCN1C(=O)[C@H](CCCCN)NC(=O)[C@H](CS)NC(=O)[C@H](CCC(N)=O)NC(=O)[C@H](CCCCN)NC(=O)[C@H](CCCNC(=N)N)NC(=O)[C@H](CCCCN)NC(=O)[C@H](Cc1ccc(O)cc1)NC(=O)[C@H](Cc1ccccc1)NC(=O)CNC(=O)[C@H](CCCCN)NC(=O)[C@@H](N)CCCNC(=N)N)C(=O)N[C@@H](CS)C(=O)N[C@@H](Cc1c[nH]c2ccccc12)C(=O)O [imm5] (H-RKGFYKRKQCKPSRGRKRGICW-OH; N-terminus and C-terminus assumed) | 90.0 ± 19.6** | 93 | 4.0 ± 0.8 | 71.6 ± 6.6** | 95.1 ± 25.7
CC(C)C[C@H](NC(=O)[C@H](C)NC(=O)[C@@H]1CCCN1C(=O)[C@H](Cc1c[nH]cn1)NC(=O)[C@H](CS)NC(=O)[C@H](CCC(N)=O)NC(=O)[C@H](CCCCN)NC(=O)[C@@H]1CCCN1C(=O)[C@H](Cc1c[nH]cn1)NC(=O)[C@H](Cc1ccccc1)NC(=O)[C@H](CC(N)=O)NC(=O)CNC(=O)[C@H](CC(N)=O)NC(=O)[C@@H](N)CCCNC(=N)N)C(=O)N[C@@H](CC(=O)O)C(=O)NCC(=O)N[C@@H](CCC(N)=O)C(=O)N[C@@H](CCCNC(=N)N)C(=O)NCC(=O)N[C@@H](CCCCN)C(=O)N[C@@H](CS)C(=O)N[C@@H](Cc1c[nH]c2ccccc12)C(=O)O [imm4] (H-RNGNFHPKQCHPALDGQRGKCW-OH; N-terminus and C-terminus assumed) | 3.6 ± 7.0 | 105 | 0.3 ± 1.2 | 3.3 ± 1.5** | 6.8 ± 24.1
N=C(N)NCCC[C@H](NC(=O)CNC(=O)[C@H](CCCCN)NC(=O)[C@H](CO)NC(=O)[C@@H]1CCCN1C(=O)[C@H](CCCNC(=N)N)NC(=O)[C@H](CS)NC(=O)[C@H](CCC(N)=O)NC(=O)[C@H](CCCCN)NC(=O)[C@H](CCCCN)NC(=O)[C@H](CCCCN)NC(=O)[C@H](Cc1ccc(O)cc1)NC(=O)[C@H](Cc1ccccc1)NC(=O)CNC(=O)[C@H](CCCCN)NC(=O)[C@@H](N)CCCCN)C(=O)N[C@@H](CCCCN)C(=O)N[C@@H](CCCNC(=N)N)C(=O)NCC(=O)N[C@@H](Cc1ccccc1)C(=O)N[C@@H](CS)C(=O)N[C@@H](Cc1c[nH]c2ccccc12)C(=O)O [imm3] (H-KKGFYKKKQCRPSKGRKRGFCW-OH; N-terminus and C-terminus assumed) | 100.0 ± 16.5** | 101 | 2.9 ± 1.1 | 66.7 ± 4.7** | 104.2 ± 22.0
